The subject of data set [1] is caspase-1 in primary cortical neurons. Briefly: TPFM of caspase-1 activation in glucose-deprived primary cortical neurons. The data set is classed as cell-based, mouse. The settings on record: 50 μM, added 1 h prior to the probe (t = 7 h during GD).
Procedure: NC: neuron cells incubated in normal neurobasal medium.
All two-photon images were taken on a Leica TCS SP5X Confocal Microscope System. […] Dissociated neuron-enriched cell cultures of cerebral cortex were established from day 16 C57BL/6 mouse embryos, as described[53]. Primary neurons were cultured in the neurobasal medium (Gibco) with 2% B27 and 0.5 mM GlutaMAX. Experiments were performed in 7–9 day-old cultures. For glucose-deprivation studies, glucose-free neurobasal medium was used (with other components fixed). The cultured neurons were incubated in glucose-free medium for 8 h, while control cells were incubated in normal neurobasal medium.
Caspase-1-like activities detected in primary cortical neurons of C57BL/6 mouse underwent
glucose-deprivation (GD) treatment.
neurons grown in normal culture medium and incubated with C1RB/C1FS for 1 h (NC). Panels 2/5: primary neuron
underwent GD induction for 8 h and incubated with C1RB/C1FS for 1 h.
(50 μM) was added 1 h earlier (t = 7 h) than C1RB/C1FS.
TPFM imaging of caspase activities in primary cortical neurons and fresh tissues.
Dissociated neuron-enriched cell cultures of cerebral cortex were established from day 16 C57BL/6 mouse embryos, as described.14 Primary neurons were cultured in the neurobasal medium (Gibco) with 2% B27 and 0.5 mM GlutaMAX. Experiments were performed in 7-9 day-old cultures. […]
In data set [2] the test system is NIH/3T3, BV2 and HeLa cells. In words: XTT cytotoxicity assay. The data set is classed as cell-based, mouse, human. The settings on record: XTT assay, 12, 30, 60, 120 μM, 24 h. Here is the method: Supplementary Figure 4. Cytotoxicity of two-photon enzymatic probes (12, 30, 60, 120 μM) in mammalian cells (NIH/3T3, BV2 and HeLa) after incubation for 24 h, as determined by XTT assay. […]
Detection of caspase activities in mammalian cells and tissues
Cell culture. The mouse embryonic fibroblast cell line (NIH/3T3), mouse microglial cell line (BV2) and human epithelial carcinoma cell line (HeLa) used in our experiments were cultured in Dulbecco’s Modified Eagle's Medium (DMEM) supplemented with 10% (for NIH/3T3 and HeLa) or 5% (for BV2) fetal bovine serum (FBS), 100.0 mg/L streptomycin and 100 IU/mL penicillin in a humidified atmosphere of 5% CO2 at 37 °C.
XTT assay. The cytotoxicity of our probes was determined by using the XTT colorimetric cell proliferation kit (Roche) following manufacturer’s guidelines. Briefly, NIH/3T3, BV2 and HeLa cells were seeded in 20~30% confluency (since they will reach >50% confluency within 24 h) into 96-well plates and incubated overnight before the addition of probes with concentrations of 12 μM, 30 μM, 60 μM and 120 μM, respectively. Probes were applied from DMSO stocks whereby DMSO never exceeded 1% in the final solution. The same volume of DMSO was used as a negative control; and the same volume of STS (200 nM) was used as a positive control. After a total treatment time of 24 h, proliferation was assayed using the XTT assay (Supplementary Fig. 4). […]
(Formazan colour is commonly taken as a measure of viable cells.)

Assay in data set [3]: not given
This is another data set of the same source.

Assay in data set [4]: not given
The source holds these as a separate data set.

In data set [5] the target is T1, caspase-1 (Homo sapiens, UniProt P29466).
T1 construct: purchased Merck
T1 sequence (P29466 120-297 limits assumed): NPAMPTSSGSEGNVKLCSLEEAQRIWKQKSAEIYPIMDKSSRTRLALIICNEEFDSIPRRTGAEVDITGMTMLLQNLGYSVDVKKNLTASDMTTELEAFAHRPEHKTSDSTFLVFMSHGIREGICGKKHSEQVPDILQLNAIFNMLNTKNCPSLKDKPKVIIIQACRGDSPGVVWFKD
T1 sequence (P29466 317-404 limits assumed): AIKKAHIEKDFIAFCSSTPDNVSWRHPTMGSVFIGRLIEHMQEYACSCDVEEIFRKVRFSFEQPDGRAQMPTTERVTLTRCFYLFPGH
In words: S/N ratio of caspase-1 probes in BV2 lysates spiked with caspase-1. The data set is classed as biochemical. The settings on record: probe 6 μM, 25 μg BV2 lysates spiked with caspase-1, 37 °C, 2 h; among the four caspase-1 probes. Here is the method:
Figure 2 Photophysical and enzymatic properties of caspase probes. (a) Photophysical and kinetic properties of probes and free dyes. All measurements were taken in 50 mM HEPES, 50 mM NaCl, 0.1% CHAPS, 10 mM EDTA, 5% glycerol, 10 mM DTT, at pH = 7.2. (b) Time-dependent ratiometric fluorescence changes of C1RB (6 μM) incubated with caspase-1 (10 nM) over 2 h at room temperature. Data were obtained by plotting the normalized ratio of fluorescence intensity at 500 nm (F500 nm) over that at 450 nm (F450 nm). (Inset) time-dependent fluorescence emission spectra with λex = 350 nm. (c) Time-dependent “Turn-ON” effect of C1FS (6 μM) incubated with caspase-1 (10 nM) measured and normalized at 460 nm (F460 nm) over 2 h at room temperature, with the corresponding fluorescence emission spectra (inset). λex = 350 nm. (d) Normalized S/N ratio of each of the four caspase-1 probes (6 μM) incubated with 25 μg of BV2 lysates spiked with different concentrations of caspase-1 (37 °C, t = 2 h). S and N represent the fluorescence emission intensity of each reaction solution in the presence (S) and absence (N) of caspase-1. […] (−) no caspase; (caspase-1) 1.5 nM; (caspase-3) 0.8 nM; (caspase-6) 0.2 μM; (caspase-8) 10 nM; (caspase-9) 0.5 μM. […] Normalized, relative fluorescence (RFU) values were obtained after 2-h incubation at room temperature. […]

Where a SMILES comes first, the peptide text is derived from it. The star is where a group is joined. NH(6-Ac-2-naphthyl) = CC(=O)c1ccc2cc(N*)ccc2c1

The values below come from publication PMC4876444, “Two-Photon Enzymatic Probes Visualizing Sub-cellular/Deep-brain Caspase Activities in Neurodegenerative Models” (Scientific Reports, 2016).

As for `CCO[C@@H]1OC(=O)C[C@@H]1NC(=O)[C@@H]1CCCN2C(=O)CC[C@H](NC(=O)c3nccc4ccccc34)C(=O)N12` [Pralnacasan], the “effect of inhibitor on C1RB/C1FS fluorescence signals in glucose-deprived neurons” value in data set [1] is on record as “inhibited”.

As for `CC(=O)N[C@@H](Cc1c[nH]c2ccccc12)C(=O)N[C@@H](CCC(=O)O)C(=O)N[C@@H](Cc1c[nH]cn1)C(=O)N[C@@H](CC(=O)O)C(=O)Nc1ccc2cc(C(C)=O)ccc2c1` [C1RB, Ac-WEHD-AAN] (Ac-WEHD-{NH(6-Ac-2-naphthyl)}), the δΦ (two-photon action cross-section) is 2.3 GM. The cytotoxicity entry in data set [2] is listed as “minimally cytotoxic”. The compound also gave a λem (emission maximum) in data set [3] of 448 nm. Moreover, the λex (absorption/excitation maximum) in data set [4] turned out to be 316 nm. The “detection limit of caspase-1 activity” value in data set [5] was “lowest detection limit”.
